From patent publication US20150366890A1, “COMPOSITIONS AND METHODS FOR TREATING FUNGAL INFECTIONS” (TRUSTEES OF BOSTON UNIVERSITY, priority 2013, published 2015)

Tested on: S. cerevisiae single-deletion yeast strains
Assay: High-throughput 96-well screen of AF sensitivity of single-gene knockouts (CFU at start and after 8 hours)
Assay type: cell-based
Procedure: To identify genes critical to AF action, the AF sensitivity of single-gene knockouts identified through the common transcriptional analysis were identified. In the first pass-through, 56 testable genes were identified. This set was later expanded to include targets identified through phenotypic analysis and metabolomic profiling, for a total of 84 target genes (Table 2). The initial 56 targets were tested using a rapid high-throughput 96-well assay with AMB and MCZ to identify single-gene knockouts with elevated resistance to AFs (Table 2). Knockouts that were more resistant to at least one of the AFs were tested individually using the 24-well colony forming (CF) assay. Target genes selected after the initial 56 strains were assayed individually using the 24-well CF assay.
The first 56 S. cerevisiae strains were acquired from the deletion library and stored in 96-well plates in replicates of three. To start the assay, the plates were defrosted and 10 μl of stored cells were inoculated into 100 μl of fresh synthetic dextrose complete (SDC) media for 16 hours. These overnight cultures were diluted into a fresh 96-well plate with 100 μl of SDC to achieve an OD600 of approximately 0.2. Colony forming units (CFU) in each well were measured at the start of the assay and after 8 hours of incubation. The AF susceptibility of each strain was compared to that of wildtype. Strains with significant susceptibility differences from wildtype were assayed in 0.5 ml of SDC media using the 24-well plate CF assay described above.

In the case of `C[C@@H]1[C@H](O)[C@@H](C)/C=C/C=C/C=C/C=C/C=C/C=C/C=C/[C@H](O[C@@H]2O[C@H](C)[C@@H](O)[C@H](N)[C@@H]2O)C[C@@H]2O[C@](O)(C[C@@H](O)C[C@@H](O)[C@H](O)CC[C@@H](O)C[C@@H](O)CC(=O)O[C@H]1C)C[C@H](O)[C@H]2C(=O)O` [AMB, amphotericin B], the “96 Well Screen, AF susceptibility vs wildtype” value (“96 Well Screen … vs wildtype” below) (S. cerevisiae PAB101, WT) is reported as “Normal”, the “96 Well Screen … vs wildtype” value (S. cerevisiae PAB102, HSP104 deletion) is reported as “Resistant (″Resistant″ or ″Sensitive″ indicate at least a 5-fold CFU difference from wildtype at the final time point)” and the “96 Well Screen … vs wildtype” value (S. cerevisiae PAB103, SDH2 deletion) is reported as “Resistant (″Resistant″ or ″Sensitive″ indicate at least a 5-fold CFU difference from wildtype at the final time point)”. The “96 Well Screen … vs wildtype” value (S. cerevisiae PAB104, FRE8 deletion) was “Resistant (″Resistant″ or ″Sensitive″ indicate at least a 5-fold CFU difference from wildtype at the final time point)”, the “96 Well Screen … vs wildtype” value (S. cerevisiae PAB105, CHA4 deletion) was “Resistant (″Resistant″ or ″Sensitive″ indicate at least a 5-fold CFU difference from wildtype at the final time point)” and the “96 Well Screen … vs wildtype” value (S. cerevisiae PAB106, FMS1 deletion) was “Resistant (″Resistant″ or ″Sensitive″ indicate at least a 5-fold CFU difference from wildtype at the final time point)”. The “96 Well Screen … vs wildtype” value (S. cerevisiae PAB107, NDE1 deletion) was “Resistant (″Resistant″ or ″Sensitive″ indicate at least a 5-fold CFU difference from wildtype at the final time point)”, the “96 Well Screen … vs wildtype” value (S. cerevisiae PAB108, ALD3 deletion) was “Resistant (″Resistant″ or ″Sensitive″ indicate at least a 5-fold CFU difference from wildtype at the final time point)” and the “96 Well Screen … vs wildtype” value (S. cerevisiae PAB109, GAD1 deletion) was “Normal”. The “96 Well Screen … vs wildtype” value (S. cerevisiae PAB110, PGM3 deletion) was “Normal”, the “96 Well Screen … vs wildtype” value (S. cerevisiae PAB111, PYK2 deletion) was “Resistant (″Resistant″ or ″Sensitive″ indicate at least a 5-fold CFU difference from wildtype at the final time point)” and the “96 Well Screen … vs wildtype” value (S. cerevisiae PAB112, MNE1 deletion) was “Normal”. The “96 Well Screen … vs wildtype” value (S. cerevisiae PAB113, FUM1 deletion) was “Normal”, the “96 Well Screen … vs wildtype” value (S. cerevisiae PAB114, TPK2 deletion) was “Normal” and the “96 Well Screen … vs wildtype” value (S. cerevisiae PAB115, ATG29 deletion) was “Resistant (″Resistant″ or ″Sensitive″ indicate at least a 5-fold CFU difference from wildtype at the final time point)”. The “96 Well Screen … vs wildtype” value (S. cerevisiae PAB116, ISU1 deletion) was “Resistant (″Resistant″ or ″Sensitive″ indicate at least a 5-fold CFU difference from wildtype at the final time point)”, the “96 Well Screen … vs wildtype” value (S. cerevisiae PAB117, CYC7 deletion) was “Normal” and the “96 Well Screen … vs wildtype” value (S. cerevisiae PAB118, ARN1 deletion) was “Normal”. For the same compound, the “96 Well Screen … vs wildtype” value (S. cerevisiae PAB119, CIT2 deletion) was “Resistant (″Resistant″ or ″Sensitive″ indicate at least a 5-fold CFU difference from wildtype at the final time point)”, the “96 Well Screen … vs wildtype” value (S. cerevisiae PAB120, HSP30 deletion) was “Normal” and the “96 Well Screen … vs wildtype” value (S. cerevisiae PAB121, SDH1 deletion) was “Normal”. For the same compound, the “96 Well Screen … vs wildtype” value (S. cerevisiae PAB122, TPK3 deletion) was “Resistant (″Resistant″ or ″Sensitive″ indicate at least a 5-fold CFU difference from wildtype at the final time point)”, the “96 Well Screen … vs wildtype” value (S. cerevisiae PAB123, ISU2 deletion) was “Normal” and the “96 Well Screen … vs wildtype” value (S. cerevisiae PAB124, TPK1 deletion) was “Normal”. For the same compound, the “96 Well Screen … vs wildtype” value (S. cerevisiae PAB125, MID2 deletion) was “Normal”, the “96 Well Screen … vs wildtype” value (S. cerevisiae PAB126, SSK1 deletion) was “Sensitive (″Resistant″ or ″Sensitive″ indicate at least a 5-fold CFU difference from wildtype at the final time point)” and the “96 Well Screen … vs wildtype” value (S. cerevisiae PAB127, HSP42 deletion) was “Normal”. The “96 Well Screen … vs wildtype” value (S. cerevisiae PAB128, PIG1 deletion) was “Normal”, the “96 Well Screen … vs wildtype” value (S. cerevisiae PAB130, UGA1 deletion) was “Resistant (″Resistant″ or ″Sensitive″ indicate at least a 5-fold CFU difference from wildtype at the final time point)” and the “96 Well Screen … vs wildtype” value (S. cerevisiae PAB131, MTL1 deletion) was “Normal”. The “96 Well Screen … vs wildtype” value (S. cerevisiae PAB132, CIT3 deletion) was “Resistant (″Resistant″ or ″Sensitive″ indicate at least a 5-fold CFU difference from wildtype at the final time point)”, the “96 Well Screen … vs wildtype” value (S. cerevisiae PAB133, ZWF1 deletion) was “Normal” and the “96 Well Screen … vs wildtype” value (S. cerevisiae PAB134, SUM1 deletion) was “sensitive”. The “96 Well Screen … vs wildtype” value (S. cerevisiae PAB135, NDI1 deletion) was “Resistant (″Resistant″ or ″Sensitive″ indicate at least a 5-fold CFU difference from wildtype at the final time point)”, the “96 Well Screen … vs wildtype” value (S. cerevisiae PAB136, PGM2 deletion) was “Normal” and the “96 Well Screen … vs wildtype” value (S. cerevisiae PAB137, HFD1 deletion) was “Normal”. For the same compound, the “96 Well Screen … vs wildtype” value (S. cerevisiae PAB138, PUF2 deletion) was “Normal”, the “96 Well Screen … vs wildtype” value (S. cerevisiae PAB139, TDH1 deletion) was “Sensitive (″Resistant″ or ″Sensitive″ indicate at least a 5-fold CFU difference from wildtype at the final time point)” and the “96 Well Screen … vs wildtype” value (S. cerevisiae PAB140, GUD1 deletion) was “Sensitive (″Resistant″ or ″Sensitive″ indicate at least a 5-fold CFU difference from wildtype at the final time point)”. For the same compound, the “96 Well Screen … vs wildtype” value (S. cerevisiae PAB141, ATG15 deletion) was “Sensitive (″Resistant″ or ″Sensitive″ indicate at least a 5-fold CFU difference from wildtype at the final time point)”, the “96 Well Screen … vs wildtype” value (S. cerevisiae PAB142, TDH2 deletion) was “Sensitive (″Resistant″ or ″Sensitive″ indicate at least a 5-fold CFU difference from wildtype at the final time point)” and the “96 Well Screen … vs wildtype” value (S. cerevisiae PAB143, ATP1 deletion) was “Sensitive (″Resistant″ or ″Sensitive″ indicate at least a 5-fold CFU difference from wildtype at the final time point)”. The “96 Well Screen … vs wildtype” value (S. cerevisiae PAB144, UGA2 deletion) was “Sensitive (″Resistant″ or ″Sensitive″ indicate at least a 5-fold CFU difference from wildtype at the final time point)”, the “96 Well Screen … vs wildtype” value (S. cerevisiae PAB145, CIT1 deletion) was “Resistant (″Resistant″ or ″Sensitive″ indicate at least a 5-fold CFU difference from wildtype at the final time point)” and the “96 Well Screen … vs wildtype” value (S. cerevisiae PAB146, SOLI deletion) was “Normal”. For the same compound, the “96 Well Screen … vs wildtype” value (S. cerevisiae PAB147, PAN6 deletion) was “Normal”, the “96 Well Screen … vs wildtype” value (S. cerevisiae PAB148, SOL4 deletion) was “Normal” and the “96 Well Screen … vs wildtype” value (S. cerevisiae PAB149, YAK1 deletion) was “Sensitive (″Resistant″ or ″Sensitive″ indicate at least a 5-fold CFU difference from wildtype at the final time point)”. The “96 Well Screen … vs wildtype” value (S. cerevisiae PAB150, PBS2 deletion) was “Sensitive (″Resistant″ or ″Sensitive″ indicate at least a 5-fold CFU difference from wildtype at the final time point)”, the “96 Well Screen … vs wildtype” value (S. cerevisiae PAB152, GPD1 deletion) was “Sensitive (″Resistant″ or ″Sensitive″ indicate at least a 5-fold CFU difference from wildtype at the final time point)” and the “96 Well Screen … vs wildtype” value (S. cerevisiae PAB153, SHO1 deletion) was “Sensitive (″Resistant″ or ″Sensitive″ indicate at least a 5-fold CFU difference from wildtype at the final time point)”. The “96 Well Screen … vs wildtype” value (S. cerevisiae PAB154, FET3 deletion) was “Sensitive (″Resistant″ or ″Sensitive″ indicate at least a 5-fold CFU difference from wildtype at the final time point)” and the “96 Well Screen … vs wildtype” value (S. cerevisiae PAB155, FBP1 deletion) was “Sensitive (″Resistant″ or ″Sensitive″ indicate at least a 5-fold CFU difference from wildtype at the final time point)”.
